Experimental data published in patent US20080249132A1, “Piperidine Carboxyamide Derivate Suitable as Tachykinin Receptor Antagonist” (priority 2005, published 2008).

Molecular target: T1, recombinant human NK1 receptors (Homo sapiens, UniProt P25103)
T1 construct: expressed in transfected cells; membrane preparation
Experiment: NK1 receptor filtration binding assay, displacement of [3H]-Substance P
Settings: displacement of [3H]-substance P from recombinant human NK1 receptors expressed in CHO cell membranes; average of at least two determinations; read-out: pKi (negative logarithm of the inhibition constant Ki) (converted)
Description: NK1-receptor binding affinity has been determined in vitro in filtration binding assay by measuring the compounds' ability to displace [^3H]-Substance P (SP) from recombinant human NK1 receptors stably expressed in Chinese Hamster Ovary (CHO) cell membranes prepared by using a modification of the method described by Beattie D. T. et al. (Br. J. Pharmacol, 116:3149-3157, 1995).
Briefly, ligand binding was performed in 0.4 ml of 50 mM HEPES, pH 7.4, containing 3 mM MnCl2, 0.02% BSA, 0.5 nM [^3H]-Substance P (30-56 Ci/mmol Amersham), a final membrane protein concentration of 30-50 μg/ml, and the test compounds. The incubation proceeded at room temperature for 40 min and was stopped by filtration. Non-specific binding was determined using excess of substance P (1 μM) and represents about 6-10% of the total binding. IC50 values of each compound were determined by an 8-point 10×-dilution inhibition curve. pKi values were calculated using the KD of [^3H]-Substance P determined in a separate experiment.
The affinity of the compound of the invention for NK1 receptor was determined using the NK1 receptor binding affinity method measuring in vitro the compounds' ability to displace [3H]—substance P (SP) from recombinant human NK1 receptors expressed in Chinese Hamster Ovary (CHO) cell membranes. […]

T1 sequence (P25103 whole entry): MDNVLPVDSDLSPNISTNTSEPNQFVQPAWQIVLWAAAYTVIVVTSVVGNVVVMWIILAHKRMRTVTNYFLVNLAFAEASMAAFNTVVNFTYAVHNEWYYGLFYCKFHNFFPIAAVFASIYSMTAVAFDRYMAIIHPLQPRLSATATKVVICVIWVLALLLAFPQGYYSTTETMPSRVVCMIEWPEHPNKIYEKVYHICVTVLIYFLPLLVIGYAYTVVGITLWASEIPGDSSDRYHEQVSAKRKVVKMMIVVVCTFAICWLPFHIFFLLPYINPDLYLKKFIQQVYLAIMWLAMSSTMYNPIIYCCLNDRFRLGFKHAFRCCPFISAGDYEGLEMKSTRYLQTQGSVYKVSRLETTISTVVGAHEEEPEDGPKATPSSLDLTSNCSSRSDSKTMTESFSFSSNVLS

- Ki: 0.02 nM
SMILES: CC(=O)NCCN[C@H]1CCN(C(=O)N(C)[C@H](C)c2cc(C(F)(F)F)cc(C(F)(F)F)c2)[C@@H](c2ccc(F)cc2C)C1 [Example 1, (2R,4S)-4-{[2-(acetylamino)ethyl]amino}-N-{(1R)-1-(3,5-bis(trifluoromethyl)phenyl)ethyl}-2-(4-fluoro-2-methylphenyl)-N-methyl-1-piperidinecarboxamide]
